# Data: ChEMBL document CHEMBL3991601, “The target landscape of clinical kinase drugs” (Science, 2017)
# Active and inactive are the calls of the source. Rule as the data show it, for most assays here: actives have a measured Kd and inactives only a lower limit.
# Columns and labels:
# [1] = target: Mitogen-activated protein kinase 8 (Homo sapiens, UniProt P45983)
# [2] = target: Wee1-like protein kinase (Homo sapiens, UniProt P30291)
# [3] = target: Dual specificity tyrosine-phosphorylation-regulated kinase 1A (Homo sapiens, UniProt Q13627)
# [4] = target: Receptor-interacting serine/threonine-protein kinase 2 (Homo sapiens, UniProt O43353)
# [5] = target: T1, Peroxisomal acyl-coenzyme A oxidase 1 (Homo sapiens, UniProt Q15067)
# T1 sequence (Q15067 whole entry): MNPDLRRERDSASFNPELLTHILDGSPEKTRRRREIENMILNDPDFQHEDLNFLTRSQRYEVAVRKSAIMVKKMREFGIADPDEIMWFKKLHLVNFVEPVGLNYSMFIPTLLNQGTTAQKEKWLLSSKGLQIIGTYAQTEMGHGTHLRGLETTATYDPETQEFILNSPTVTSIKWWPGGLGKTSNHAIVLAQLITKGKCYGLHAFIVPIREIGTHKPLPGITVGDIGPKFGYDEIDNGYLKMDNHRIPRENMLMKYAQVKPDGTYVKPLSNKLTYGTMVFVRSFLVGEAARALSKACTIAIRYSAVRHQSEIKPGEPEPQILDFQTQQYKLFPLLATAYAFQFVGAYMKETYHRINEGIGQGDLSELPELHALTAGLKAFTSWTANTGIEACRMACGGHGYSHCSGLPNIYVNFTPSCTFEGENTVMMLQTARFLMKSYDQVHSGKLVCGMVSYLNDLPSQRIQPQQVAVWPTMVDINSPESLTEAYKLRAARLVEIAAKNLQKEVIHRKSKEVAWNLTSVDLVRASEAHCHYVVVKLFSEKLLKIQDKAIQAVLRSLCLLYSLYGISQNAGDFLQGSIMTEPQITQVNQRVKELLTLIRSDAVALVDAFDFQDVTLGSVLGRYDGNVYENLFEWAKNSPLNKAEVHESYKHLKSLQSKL
# [6] = target: Mitogen-activated protein kinase kinase kinase kinase 4 (Homo sapiens, UniProt O95819)
# [7] = target: T2, Mitogen-activated protein kinase kinase kinase 2 (Homo sapiens, UniProt Q9Y2U5)
# T2 sequence (Q9Y2U5 whole entry): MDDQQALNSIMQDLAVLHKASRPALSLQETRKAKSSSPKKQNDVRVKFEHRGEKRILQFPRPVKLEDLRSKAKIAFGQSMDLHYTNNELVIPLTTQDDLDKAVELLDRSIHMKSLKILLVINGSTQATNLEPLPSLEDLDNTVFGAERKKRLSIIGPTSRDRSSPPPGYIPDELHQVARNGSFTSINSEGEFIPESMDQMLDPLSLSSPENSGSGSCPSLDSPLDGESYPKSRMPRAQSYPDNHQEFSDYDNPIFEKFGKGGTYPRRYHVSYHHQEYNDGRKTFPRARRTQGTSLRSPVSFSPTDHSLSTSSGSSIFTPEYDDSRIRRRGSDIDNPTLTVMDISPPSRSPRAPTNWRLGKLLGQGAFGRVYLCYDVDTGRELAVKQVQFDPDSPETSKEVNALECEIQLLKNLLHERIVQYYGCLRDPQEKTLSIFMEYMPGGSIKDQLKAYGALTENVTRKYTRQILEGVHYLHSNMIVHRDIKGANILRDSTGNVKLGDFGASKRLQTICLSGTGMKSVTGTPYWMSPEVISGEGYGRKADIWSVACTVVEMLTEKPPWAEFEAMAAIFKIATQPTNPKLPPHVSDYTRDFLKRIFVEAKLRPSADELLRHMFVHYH
# [8] = target: TGF-beta receptor type-2 (Homo sapiens, UniProt P37173)
# [9] = target: Tyrosine-protein kinase FRK (Homo sapiens, UniProt P42685)
# [10] = target: T3, Serine/threonine-protein kinase 4 (Homo sapiens, UniProt Q13043)
# T3 sequence (Q13043 whole entry): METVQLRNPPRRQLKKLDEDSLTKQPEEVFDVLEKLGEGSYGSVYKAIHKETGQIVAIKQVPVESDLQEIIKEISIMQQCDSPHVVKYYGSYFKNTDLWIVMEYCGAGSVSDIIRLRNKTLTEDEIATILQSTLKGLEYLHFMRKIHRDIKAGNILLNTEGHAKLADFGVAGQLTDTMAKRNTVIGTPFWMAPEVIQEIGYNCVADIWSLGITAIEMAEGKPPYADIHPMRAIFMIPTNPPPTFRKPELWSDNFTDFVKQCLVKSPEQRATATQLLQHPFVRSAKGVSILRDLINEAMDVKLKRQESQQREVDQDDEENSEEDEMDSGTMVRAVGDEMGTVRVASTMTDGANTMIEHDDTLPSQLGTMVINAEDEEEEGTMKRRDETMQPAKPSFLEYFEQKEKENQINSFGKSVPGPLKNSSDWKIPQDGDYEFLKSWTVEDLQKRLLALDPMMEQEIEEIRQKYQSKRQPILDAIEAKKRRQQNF
# [11] = target: T4, Dual specificity mitogen-activated protein kinase kinase 5 (Homo sapiens, UniProt Q13163)
# T4 sequence (Q13163 whole entry): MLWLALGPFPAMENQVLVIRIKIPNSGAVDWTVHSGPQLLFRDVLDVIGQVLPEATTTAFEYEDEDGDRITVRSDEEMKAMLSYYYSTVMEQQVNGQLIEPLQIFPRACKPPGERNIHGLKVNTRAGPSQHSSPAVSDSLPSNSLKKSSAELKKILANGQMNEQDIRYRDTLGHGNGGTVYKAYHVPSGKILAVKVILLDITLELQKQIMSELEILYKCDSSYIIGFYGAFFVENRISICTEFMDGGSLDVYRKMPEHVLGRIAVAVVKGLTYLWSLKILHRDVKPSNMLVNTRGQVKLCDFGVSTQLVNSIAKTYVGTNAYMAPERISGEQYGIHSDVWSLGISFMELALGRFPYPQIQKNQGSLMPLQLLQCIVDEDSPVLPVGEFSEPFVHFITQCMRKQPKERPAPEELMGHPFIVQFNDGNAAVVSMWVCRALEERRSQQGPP
# [12] = target: AP2-associated protein kinase 1 (Homo sapiens, UniProt Q2M2I8)
# Also: in the data inactive means no Kd found up to 30 µM.
# Wee1-like protein kinase, sequence (P30291 whole entry): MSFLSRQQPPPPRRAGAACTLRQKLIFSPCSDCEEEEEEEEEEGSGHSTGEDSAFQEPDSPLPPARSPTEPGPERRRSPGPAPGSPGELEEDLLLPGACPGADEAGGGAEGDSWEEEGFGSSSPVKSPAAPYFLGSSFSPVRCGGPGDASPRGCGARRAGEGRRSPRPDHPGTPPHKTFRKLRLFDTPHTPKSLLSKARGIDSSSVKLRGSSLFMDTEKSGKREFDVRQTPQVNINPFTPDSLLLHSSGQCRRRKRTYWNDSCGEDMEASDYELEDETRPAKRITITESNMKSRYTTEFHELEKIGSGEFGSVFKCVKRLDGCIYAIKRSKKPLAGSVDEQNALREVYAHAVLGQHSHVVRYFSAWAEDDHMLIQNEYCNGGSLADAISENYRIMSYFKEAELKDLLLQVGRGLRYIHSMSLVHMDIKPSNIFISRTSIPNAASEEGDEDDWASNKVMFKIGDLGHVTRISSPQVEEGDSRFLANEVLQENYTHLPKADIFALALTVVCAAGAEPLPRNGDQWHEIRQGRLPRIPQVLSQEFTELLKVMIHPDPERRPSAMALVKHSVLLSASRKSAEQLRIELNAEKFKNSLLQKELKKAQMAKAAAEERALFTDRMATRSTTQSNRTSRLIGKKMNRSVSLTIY
# TGF-beta receptor type-2, sequence (P37173 whole entry): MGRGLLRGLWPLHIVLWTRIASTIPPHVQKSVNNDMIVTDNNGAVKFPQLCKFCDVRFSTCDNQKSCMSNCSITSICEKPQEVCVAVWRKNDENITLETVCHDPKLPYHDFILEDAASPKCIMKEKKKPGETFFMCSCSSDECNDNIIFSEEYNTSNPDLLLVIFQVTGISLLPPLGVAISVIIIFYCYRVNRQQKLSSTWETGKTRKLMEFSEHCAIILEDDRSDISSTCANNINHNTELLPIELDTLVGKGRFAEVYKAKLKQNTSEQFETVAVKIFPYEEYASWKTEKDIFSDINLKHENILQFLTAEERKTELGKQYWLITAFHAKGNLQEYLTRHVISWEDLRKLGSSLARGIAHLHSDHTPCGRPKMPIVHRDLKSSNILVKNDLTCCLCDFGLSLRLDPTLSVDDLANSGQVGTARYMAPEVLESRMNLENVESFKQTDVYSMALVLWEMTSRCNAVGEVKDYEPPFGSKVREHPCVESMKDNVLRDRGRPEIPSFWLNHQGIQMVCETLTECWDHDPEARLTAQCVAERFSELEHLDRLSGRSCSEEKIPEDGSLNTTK
# AP2-associated protein kinase 1, sequence (Q2M2I8 whole entry): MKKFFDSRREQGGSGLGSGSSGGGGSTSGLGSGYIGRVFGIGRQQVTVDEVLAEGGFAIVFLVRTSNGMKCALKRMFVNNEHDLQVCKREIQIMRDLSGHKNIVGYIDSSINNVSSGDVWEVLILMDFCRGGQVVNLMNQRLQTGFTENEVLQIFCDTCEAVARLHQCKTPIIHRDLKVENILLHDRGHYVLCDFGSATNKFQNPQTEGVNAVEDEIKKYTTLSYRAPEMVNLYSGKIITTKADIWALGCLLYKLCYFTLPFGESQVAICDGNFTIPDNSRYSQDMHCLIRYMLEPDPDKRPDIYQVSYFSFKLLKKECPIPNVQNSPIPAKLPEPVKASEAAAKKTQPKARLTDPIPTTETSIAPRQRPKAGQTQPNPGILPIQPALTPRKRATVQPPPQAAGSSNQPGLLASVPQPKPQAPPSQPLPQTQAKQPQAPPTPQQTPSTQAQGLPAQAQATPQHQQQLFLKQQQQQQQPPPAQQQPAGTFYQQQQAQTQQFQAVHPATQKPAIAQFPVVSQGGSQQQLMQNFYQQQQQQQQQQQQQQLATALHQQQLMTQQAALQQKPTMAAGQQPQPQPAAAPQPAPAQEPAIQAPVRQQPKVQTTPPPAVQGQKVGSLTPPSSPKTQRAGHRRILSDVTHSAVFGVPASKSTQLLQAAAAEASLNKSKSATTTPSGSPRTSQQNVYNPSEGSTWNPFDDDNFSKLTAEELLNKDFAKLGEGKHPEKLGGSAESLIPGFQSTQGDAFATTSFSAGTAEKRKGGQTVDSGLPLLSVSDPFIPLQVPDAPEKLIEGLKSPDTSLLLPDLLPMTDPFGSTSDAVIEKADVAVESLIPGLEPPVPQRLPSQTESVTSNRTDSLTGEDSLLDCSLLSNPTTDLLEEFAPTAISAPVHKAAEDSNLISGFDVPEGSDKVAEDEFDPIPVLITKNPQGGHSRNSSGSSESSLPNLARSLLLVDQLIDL
# Mitogen-activated protein kinase kinase kinase kinase 4, sequence (O95819 whole entry): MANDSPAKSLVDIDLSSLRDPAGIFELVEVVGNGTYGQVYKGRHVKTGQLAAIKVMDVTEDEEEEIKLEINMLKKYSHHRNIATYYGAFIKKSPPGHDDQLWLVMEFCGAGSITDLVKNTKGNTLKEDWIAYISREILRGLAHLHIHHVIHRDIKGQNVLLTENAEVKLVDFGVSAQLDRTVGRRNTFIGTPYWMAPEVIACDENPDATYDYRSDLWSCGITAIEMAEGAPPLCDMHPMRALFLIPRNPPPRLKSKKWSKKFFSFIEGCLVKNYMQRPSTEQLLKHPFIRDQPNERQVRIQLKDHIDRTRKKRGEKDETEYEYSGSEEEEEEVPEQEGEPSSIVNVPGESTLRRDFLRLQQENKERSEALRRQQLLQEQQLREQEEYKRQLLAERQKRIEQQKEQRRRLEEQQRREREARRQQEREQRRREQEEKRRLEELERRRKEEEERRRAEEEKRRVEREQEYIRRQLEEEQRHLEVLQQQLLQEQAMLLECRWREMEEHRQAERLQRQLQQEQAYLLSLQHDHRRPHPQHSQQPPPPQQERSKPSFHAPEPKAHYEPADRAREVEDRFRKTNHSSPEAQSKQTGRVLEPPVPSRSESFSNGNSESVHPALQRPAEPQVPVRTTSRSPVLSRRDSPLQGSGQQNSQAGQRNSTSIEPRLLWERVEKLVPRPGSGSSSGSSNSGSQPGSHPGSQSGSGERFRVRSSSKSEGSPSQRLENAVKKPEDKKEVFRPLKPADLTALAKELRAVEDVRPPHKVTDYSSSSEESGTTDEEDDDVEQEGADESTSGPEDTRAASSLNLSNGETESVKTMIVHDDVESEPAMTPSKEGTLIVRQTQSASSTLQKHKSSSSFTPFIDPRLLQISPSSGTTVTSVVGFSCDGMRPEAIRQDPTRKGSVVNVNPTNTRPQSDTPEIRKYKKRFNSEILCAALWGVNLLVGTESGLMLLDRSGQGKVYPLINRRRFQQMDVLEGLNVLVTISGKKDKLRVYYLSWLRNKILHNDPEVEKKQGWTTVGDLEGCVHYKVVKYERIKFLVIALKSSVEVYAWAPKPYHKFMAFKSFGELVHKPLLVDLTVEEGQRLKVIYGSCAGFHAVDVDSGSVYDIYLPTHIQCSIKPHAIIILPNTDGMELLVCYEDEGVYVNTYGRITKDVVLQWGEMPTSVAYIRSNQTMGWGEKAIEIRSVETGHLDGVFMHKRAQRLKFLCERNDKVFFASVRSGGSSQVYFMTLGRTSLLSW
# Receptor-interacting serine/threonine-protein kinase 2, sequence (O43353 whole entry): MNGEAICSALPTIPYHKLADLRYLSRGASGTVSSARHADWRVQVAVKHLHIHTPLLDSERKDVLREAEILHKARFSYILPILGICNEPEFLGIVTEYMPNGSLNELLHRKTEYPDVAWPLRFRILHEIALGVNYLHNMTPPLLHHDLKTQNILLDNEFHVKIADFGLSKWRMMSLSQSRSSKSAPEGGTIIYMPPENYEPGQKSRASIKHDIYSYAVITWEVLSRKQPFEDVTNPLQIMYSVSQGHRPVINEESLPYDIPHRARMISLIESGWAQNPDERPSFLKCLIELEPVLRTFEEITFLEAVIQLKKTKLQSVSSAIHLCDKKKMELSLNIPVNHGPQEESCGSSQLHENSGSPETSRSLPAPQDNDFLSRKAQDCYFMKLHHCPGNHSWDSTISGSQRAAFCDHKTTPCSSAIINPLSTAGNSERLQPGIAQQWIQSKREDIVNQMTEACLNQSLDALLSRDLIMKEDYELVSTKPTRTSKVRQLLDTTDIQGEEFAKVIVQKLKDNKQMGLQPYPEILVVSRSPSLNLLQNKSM
# Tyrosine-protein kinase FRK, sequence (P42685 whole entry): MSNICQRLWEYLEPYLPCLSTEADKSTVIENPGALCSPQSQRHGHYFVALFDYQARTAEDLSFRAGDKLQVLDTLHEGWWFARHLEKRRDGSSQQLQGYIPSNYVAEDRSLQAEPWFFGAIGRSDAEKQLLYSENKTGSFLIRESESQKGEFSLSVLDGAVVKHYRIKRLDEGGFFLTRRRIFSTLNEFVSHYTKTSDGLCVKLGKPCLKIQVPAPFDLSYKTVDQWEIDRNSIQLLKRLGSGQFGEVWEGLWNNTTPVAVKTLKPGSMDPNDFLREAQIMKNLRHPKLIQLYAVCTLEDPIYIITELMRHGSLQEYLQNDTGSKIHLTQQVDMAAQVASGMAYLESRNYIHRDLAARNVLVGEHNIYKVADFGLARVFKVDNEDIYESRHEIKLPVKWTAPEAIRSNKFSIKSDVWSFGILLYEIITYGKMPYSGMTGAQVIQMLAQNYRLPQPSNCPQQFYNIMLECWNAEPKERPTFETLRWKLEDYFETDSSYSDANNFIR
# Mitogen-activated protein kinase 8, sequence (P45983 whole entry): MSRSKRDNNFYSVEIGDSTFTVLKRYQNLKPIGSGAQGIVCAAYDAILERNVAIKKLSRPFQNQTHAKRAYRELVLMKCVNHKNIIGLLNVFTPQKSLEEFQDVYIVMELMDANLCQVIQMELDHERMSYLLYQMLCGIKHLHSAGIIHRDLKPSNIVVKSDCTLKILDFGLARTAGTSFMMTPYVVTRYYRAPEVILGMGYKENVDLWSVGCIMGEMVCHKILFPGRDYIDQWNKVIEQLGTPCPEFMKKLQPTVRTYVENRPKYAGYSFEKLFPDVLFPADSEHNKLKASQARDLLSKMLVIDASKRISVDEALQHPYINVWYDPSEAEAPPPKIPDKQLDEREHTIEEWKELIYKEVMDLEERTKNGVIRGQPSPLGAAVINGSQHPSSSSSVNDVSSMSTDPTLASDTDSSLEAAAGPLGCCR
Structure (SMILES),Kd [1],Kd [2],Kd [3],Kd [4],Kd [5],Kd [6],Kd [7],Kd [8],Kd [9],Kd [10],Kd [11],Kd [12]
Cc1ccc(C(=O)Nc2ccc(Oc3cc4cnn(C)c4cc3-c3cn[nH]c3)c(F)c2)c(=O)n1-c1ccc(F)cc1 [MERESTINIB],> 30 µM (inactive),> 30 µM (inactive),> 30 µM (inactive),> 30 µM (inactive),> 30 µM (inactive),> 30 µM (inactive),> 30 µM (inactive),> 30 µM (inactive),> 30 µM (inactive),> 30 µM (inactive),> 30 µM (inactive),> 30 µM (inactive)
O=C(NOC[C@H](O)CO)c1ccc(F)c(F)c1Nc1ccc(I)cc1F [MIRDAMETINIB],> 30 µM (inactive),> 30 µM (inactive),> 30 µM (inactive),> 30 µM (inactive),> 30 µM (inactive),> 30 µM (inactive),> 30 µM (inactive),> 30 µM (inactive),> 30 µM (inactive),> 30 µM (inactive),0.808 µM (active),> 30 µM (inactive)
COc1cccc2cc(-c3nc([C@H]4CC[C@H](C(=O)O)CC4)n4ncnc(N)c34)[nH]c12 [OSI-027],> 30 µM (inactive),> 30 µM (inactive),> 30 µM (inactive),1.16 µM (active),> 30 µM (inactive),> 30 µM (inactive),> 30 µM (inactive),> 30 µM (inactive),> 30 µM (inactive),> 30 µM (inactive),4.91 µM (active),> 30 µM (inactive)
O=C(Nc1ccc(OC(F)(F)F)cc1)c1sccc1NCc1ccnc2ccccc12 [OSI-930],> 30 µM (inactive),> 30 µM (inactive),> 30 µM (inactive),> 30 µM (inactive),> 30 µM (inactive),> 30 µM (inactive),> 30 µM (inactive),> 30 µM (inactive),> 30 µM (inactive),> 30 µM (inactive),> 30 µM (inactive),> 30 µM (inactive)
FC(F)(F)c1ccc(CNc2ccc(Cc3c[nH]c4ncc(Cl)cc34)cn2)cn1 [PEXIDARTINIB],> 30 µM (inactive),> 30 µM (inactive),> 30 µM (inactive),> 30 µM (inactive),> 30 µM (inactive),> 30 µM (inactive),> 30 µM (inactive),> 30 µM (inactive),> 30 µM (inactive),> 30 µM (inactive),> 30 µM (inactive),13.7 µM (active)
CC(C)CC(=O)Nc1[nH]nc2c1CN(C(=O)C1CCN(C)CC1)C2(C)C [PHA-793887],> 30 µM (inactive),> 30 µM (inactive),> 30 µM (inactive),> 30 µM (inactive),> 30 µM (inactive),> 30 µM (inactive),> 30 µM (inactive),> 30 µM (inactive),> 30 µM (inactive),> 30 µM (inactive),> 30 µM (inactive),> 30 µM (inactive)
O=C(NC[C@H](O)CO)c1ccncc1Nc1ccc(I)cc1F [PIMASERTIB],> 30 µM (inactive),> 30 µM (inactive),> 30 µM (inactive),> 30 µM (inactive),> 30 µM (inactive),> 30 µM (inactive),> 30 µM (inactive),> 30 µM (inactive),> 30 µM (inactive),> 30 µM (inactive),> 30 µM (inactive),> 30 µM (inactive)
C=CC(=O)Nc1cccc(Nc2nc(Nc3ccc(N4CCN(C(C)=O)CC4)cc3OC)ncc2C(F)(F)F)c1 [ROCILETINIB],> 30 µM (inactive),> 30 µM (inactive),> 30 µM (inactive),> 30 µM (inactive),> 30 µM (inactive),> 30 µM (inactive),> 30 µM (inactive),> 30 µM (inactive),> 30 µM (inactive),> 30 µM (inactive),> 30 µM (inactive),> 30 µM (inactive)
Cn1c(=O)c(F)c(Nc2ccc(I)cc2F)c2c(=O)n(C[C@@H](O)CO)cnc21 [TAK-733],> 30 µM (inactive),> 30 µM (inactive),> 30 µM (inactive),> 30 µM (inactive),> 30 µM (inactive),> 30 µM (inactive),> 30 µM (inactive),> 30 µM (inactive),> 30 µM (inactive),> 30 µM (inactive),3.35 µM,> 30 µM (inactive)
CNC(=O)c1cc(COc2nnc(Nc3ccc(Cl)cc3)c3ccoc23)ccn1 [TELATINIB],> 30 µM (inactive),> 30 µM (inactive),> 30 µM (inactive),> 30 µM (inactive),> 30 µM (inactive),> 30 µM (inactive),> 30 µM (inactive),> 30 µM (inactive),> 30 µM (inactive),> 30 µM (inactive),> 30 µM (inactive),> 30 µM (inactive)
Cc1cc(-c2cc(OC(=O)c3ccccc3)ccc2Cl)cc2nnc(Nc3ccc(OCCN4CCCC4)cc3)nc12 [TG100-801],> 30 µM (inactive),> 30 µM (inactive),> 30 µM (inactive),0.192 µM (active),> 30 µM (inactive),> 30 µM (inactive),> 30 µM (inactive),0.703 µM (active),> 30 µM (inactive),> 30 µM (inactive),> 30 µM (inactive),> 30 µM (inactive)
C[C@@H]1COC(Nc2ccc3ncnc(Nc4ccc(OCc5nccs5)c(Cl)c4)c3c2)=N1 [VARLITINIB],> 30 µM (inactive),> 30 µM (inactive),> 30 µM (inactive),0.81 µM (active),> 30 µM (inactive),> 30 µM (inactive),> 30 µM (inactive),> 30 µM (inactive),> 30 µM (inactive),> 30 µM (inactive),> 30 µM (inactive),> 30 µM (inactive)
CNC(=O)c1cccc(-c2ccc3c(N4CCOC[C@@H]4C)nc(N4CCOC[C@@H]4C)nc3n2)c1 [VISTUSERTIB],> 30 µM (inactive),> 30 µM (inactive),> 30 µM (inactive),> 30 µM (inactive),> 30 µM (inactive),> 30 µM (inactive),> 30 µM (inactive),> 30 µM (inactive),> 30 µM (inactive),> 30 µM (inactive),> 30 µM (inactive),> 30 µM (inactive)
